System: reconstructed Episkin J13 skin model
Assay: Episkin Peeling test (detachment of corneocytes measured by dosage of proteins)
Assay type: cell-based
Settings: for desquamating efficacy (detachment of corneocytes) compared to 30% glycolic acid reference: 10 min treatment
Method: The Episkin Peeling test measures the detachment of corneocytes of the reconstructed Episkin J13 skin model. At this stage of maturation, the epidermis has a well differentiated stratum corneum (SC).
The sample is treated for 10 minutes with the control or test solution. The sample is taken and placed on the wall of a tube; its surface is then washed with a swab. The washing solution is filtered to preserve only the detached corneocytes. Their presence is measured by a dosage of proteins with the BCA Kit (PIERCE no. 23225).
The reference molecule is glycolic acid (AG). This is one of the compounds used in peeling at rates of occasionally up to 70%. It is applied for short times on the order of a few minutes and then neutralised.
The rate of 30% was used because it allows for good response dynamics with a short application time of 10 min.
Three Episkin batches are used for each study (n=3 per batch and per condition).
The evaluation of the raw materials (MP) is carried out by comparing the results of the MP to those obtained with 30% AG. The MP is effective if it reaches the level of the reference.
They were immersed in water. Spiculisporic acid was salified with potassium (KOH).
The dosage of free proteins, measured by DO, is to proportional to the quantity of corneocytes extracted, and thus to desquamation.

How did the “detachment of corneocytes measured by dosage of proteins (FIG. 1)” value (10%, 30% and 50%) turn out when O=C(O)CO [AG, glycolic acid, reference compound] was run?
Its value is “dose-dependent effect”.

Which “desquamating efficacy (detachment of corneocytes) compared to 30% glycolic acid reference” value (5% in water) does the source give for CCCCCCCC(=O)OCC(O)CO (stereo not shown) [GMCY, Glyceryl caprylate] here?
Its value is “desquamating efficacy (almost) reaching that of the glycolic acid reference at 30%”.

And the “desquamating efficacy (detachment of corneocytes) compared to 30% glycolic acid reference” value (5% in water, listed as glyceryl caprylate)?
Its value is “positive, but not significant, desquamation relative to the positive control”.

What does the source list for CCCCCCCCCCC(C(=O)O)C1(C(=O)O)CCC(=O)O1 (stereo not shown) [Spiculisporic acid K+, 4,5-dicarboxy-4-pentadecanolide]?
desquamating efficacy (detachment of corneocytes) compared to 30% glycolic acid reference (1% in water, salified with KOH): no effect on the detachment of corneocytes; desquamating efficacy (detachment of corneocytes) compared to 30% glycolic acid reference (1% in water, salified with KOH, listed as spiculisporic acid): absence of desquamation

How did the “desquamating efficacy (detachment of corneocytes) compared to 30% glycolic acid reference” value (10% in water) turn out when O=C(O)CC(O)(CC(=O)O)C(=O)O [citric acid, Citric acid, reference compound] was run?
The value was “does not reach the effect of the reference”.

What about the “desquamating efficacy (detachment of corneocytes) compared to 30% glycolic acid reference” value (30% in water) of the same compound?
Its value is “reaches the efficacy level of the reference”.

— patent US10646427B2, “Cosmetic compositions comprising spiculisporic acid and an ester of fatty acid and(poly)glycerol optionally polyoxyalkylenated” (L'OREAL, priority 2013, dated 2020)
